From US12583870B2, “Azaheteroaryl compound and application thereof” (SHANGHAI BLUERAY BIOPHARMA CO., LTD., priority 2019, dated 2026)

How the values were obtained:
[1] = system: trimethylation level of histone H3K27 in G401 cells; assay: ELISA (H3K27 trimethylation) analysis in G401 cells; type: cell-based; conditions: Homo sapiens, G-401, 72 hours, H3K27me3 standardized to H3
Experimental: 3-fold series dilution with DMSO was carried out on the representative compounds of the present disclosure; and 10 concentration gradients were detected for each compound, with the highest detection concentration of 10 μM. The compounds were diluted 200-fold into the G401 cells cultured in a 96-well plate (DMSO at a final concentration of 0.5%). After the cells, administered with the compound, were cultured for 72 hours, the trimethylation level of the histone H3K27 was detected using the ELISA method.
Extraction of the histone: in a 96-well plate, the compound-treated cells were washed three times with 1×PBS (10×PBS buffer (80 g NaCl (Sigma, product number S3014), 2 g KCl (Sigma, product number 60128), 14.4 g Na2HPO4 (Sigma, product number S5136), and 2.4 g KH2PO4 (Sigma, product number P9791) in 1 L of water, adjusting the pH to 7.4)). 100 μL of 0.4 N HCl was added into each well. The plate was placed at 4° C. and gently agitated for 2 hours to lyse the cells. The cell lysate was then neutralized with 80 μL of neutralization buffer (0.5 M disodium hydrogen phosphate, pH 12.5, 2.5 mM DTT; 1% cocktail (Sigma, product number P8340)) (the cell lysate and the neutralization buffer were thoroughly mixed to uniformity).
ELISA detection method: the cell lysate was transferred in parallel to two 384-well detection plates (PerkinElmer, OptiPlate-384HB, product number 6007290), wherein one of the plates was used to detect the H3K27 trimethylation level and the other plate was used to determine the level of H3. PBS was used to adjust the final volume to 50 μL/well. The plates were coated at 4° C. overnight. On the following day, the solution inside the wells was discarded and the plates were washed 5 times with TBST buffer (1×TBS (10×TBS: 24.2 g Tris (Sigma, product number T6066), 80 g NaCl (Sigma, product number S3014) in 1 L of water, adjusting the pH with HCl to 7.6), 0.1% Tween-20) and dried on an absorbent paper by inversion. 70 μL of blocking buffer (TBST, 5% BSA) was added into the coated reaction wells and the plates were incubated at room temperature for 1 hour. The blocking buffer was discarded and primary antibodies were added (30 μL/well). The desired primary antibodies were all diluted with a blocking buffer and the dilution factor was as follows: anti-H3K27me3 antibody (Cell Signaling Technology, product number 9733), 1:2000 dilution; anti-H3 antibody (Cell Signaling Technology, product number 4499), 1:10000 dilution. After the primary antibodies were added, the plates were placed at room temperature and incubated for 1 hour. After the plates were washed with TBST 5 times, the plates were dried by inversion. A secondary antibody (30 μL/well) was added to each of the reaction wells and the plates were incubated at room temperature for 1 hour. The secondary antibody (anti-rabbit antibody (Jackson ImmunoResearch, product number 111-035-003)) was diluted 2000-fold with a blocking buffer before use. After 1 hour, the plates were washed with TBST and dried by inversion. 30 μL of ECL substrate (Pierce, product number 34080) was added into each well and centrifuged at 2000 rpm for 30 seconds. The signal of each sample was detected using SpectraMax (Molecular Devices). Data processing: H3K27 methylation readings were first standardlized using H3 signals and 0.5% DMSO-treated samples was used as the control to calculate the inhibition percentage of the compounds. Data were fit to obtain Dose-Response curves using the GraphPad prism 5 program and the IC50 values of the test compounds were obtained.

KARPAS-422 cells = assay: Cell proliferation analysis, KARPAS-422, 13 days, CellTiter-Glo; type: cell-based; conditions: Homo sapiens, 312 h
Experimental: Human B-cell non-Hodgkin lymphoma cells, KARPAS-422 S, were cultured in a culture flask using standard cell culture conditions. The medium contained 15% fetal bovine serum (FBS, Invitrogen, product number 10099-141) and 1% penicillin/streptomycin solution (P/S) RPMI-1640 (Invitrogen, product number 11875), and the culture flask was placed and cultured in a sterile incubator at the temperature of 37° C. and […] with a relative humidity of […] To detect the effect of PRC2 inhibitors on cell proliferation, cells in exponential growth phase were taken and seeded into a 96-well plate (Corning, product number 3904) at a density of 1×10^4 cells/well, and 100 μL of the medium was added into each well. Subsequently, the compounds at different concentrations disclosed in the present disclosure were added into the wells where cells had already been seeded (9 concentration gradients were provided for each compound, with the highest detection concentration at 10 μM, 3-fold gradient dilution) and two replicates in parallel were provided for each treatment concentration. DMSO was at a final concentration of 0.5%. Afterwards, viable cell numbers were determined using Vi-CELL (Beckman Coulter) every 3-4 days. Cells counted were seeded into a new 96-well plate at the same density (1×10^4 cells/well) each time. The wells were supplemented with a fresh medium to 100 μL and at the same time, compounds at different concentrations were added. The cells were cultured to day 13. 100 μL of CellTiter-Glo (CellTiter-GloCellTiter-GloCellTiter-GloCTG) (Promega, product number G7573) was added into each well. The plate was placed in the dark at room temperature for 10-20 minutes and the luminescence signal was read using SpectraMax i3× (Molecular Devices).

IC50 [1] [µM] | IC50 (KARPAS-422 cells) [µM] | SMILES
0.0134 | 0.0046 | NC(=O)c1cnc2c(-c3cnc(NCc4c(F)ccc5c4CCO5)n4cnnc34)cc(F)cn12 [6-fluoro-8-(5-(((5-fluoro-2,3-dihydrobenzofuran-4-yl)methyl)amino)-[1,2,4]triazolo[4,3-c]pyrimidin-8-yl)imidazo[1,2-a]pyridine-3-carboxamide]
0.0007 | 0.0012 | Fc1ccc2c(c1CNc1ncc(-c3cccc4nn[nH]c34)c3nncn13)CCO2 [8-(1H-benzo[d][1,2,3]triazol-7-yl)-N-((5-fluoro-2,3-dihydrobenzofuran-4-yl)methyl)-[1,2,4]triazolo[4,3-c]pyrimidin-5-amine]
0.0013 | 0.0013 | Cc1nc2c(-c3cnc(NCc4c(F)ccc5c4CCO5)n4cnnc34)ccc(C)n2n1 [8-(2,5-dimethyl-[1,2,4]triazolo[1,5-a]pyridin-8-yl)-N-((5-fluoro-2,3-dihydrobenzofuran-4-yl)methyl)-[1,2,4]triazolo[4,3-c]pyrimidin-5-amine]
0.0018 | 0.0244 | CN(C)c1nc2c(-c3cnc(NCc4c(F)ccc5c4CCO5)n4cnnc34)cc(F)cn2n1 [8-(2-(dimethylamino)-6-fluoro-[1,2,4]triazolo[1,5-a]pyridin-8-yl)-N-((5-fluoro-2,3-dihydrobenzofuran-4-yl)methyl)-[1,2,4]triazolo[4,3-c]pyrimidin-5-amine]
0.0084 | 0.0054 | CN(C)c1nc2c(-c3cnc(NCc4c(F)ccc5c4CCO5)n4cnnc34)cccn2n1 [8-(2-(dimethylamino)-[1,2,4]triazolo[1,5-a]pyridin-8-yl)-N-((5-fluoro-2,3-dihydrobenzofuran-4-yl)methyl)-[1,2,4]triazolo[4,3-c]pyrimidin-5-amine]
0.0017 | 0.0018 | Fc1ccc2c(c1CNc1ncc(-c3ccc(N4CC5(COC5)C4)n4ncnc34)c3nncn13)CCO2 [8-(5-(2-oxa-6-azaspiro[3.3]heptan-6-yl)-[1,2,4]triazolo[1,5-a]pyridin-8-yl)-N-((5-fluoro-2,3-dihydrobenzofuran-4-yl)methyl)-[1,2,4]triazolo[4,3-c]pyrimidin-5-amine]
0.0006 | 0.0009 | Fc1ccc2c(c1CNc1ncc(-c3ccc(Cn4ccnc4)n4ncnc34)c3nncn13)CCO2 [8-(5-((1H-imidazol-1-yl)methyl)-[1,2,4]triazolo[1,5-a]pyridin-8-yl)-N-((5-fluoro-2,3-dihydrobenzofuran-4-yl)methyl)-[1,2,4]triazolo[4,3-c]pyrimidin-5-amine]
0.0039 | 0.0062 | COc1ccc(-c2cnc(NCc3c(F)ccc4c3CCO4)n3cnnc23)c2ncc(C#N)n12 [8-(5-(((5-fluoro-2,3-dihydrobenzofuran-4-yl)methyl)amino)-[1,2,4]triazolo[4,3-c]pyrimidin-8-yl)-5-methoxyimidazo[1,2-a]pyridine-3-carbonitrile]
0.0052 | 0.003 | Cc1ccc(-c2cnc(NCc3c(F)ccc4c3CCO4)n3cnnc23)c2ncc(C#N)n12 [8-(5-(((5-fluoro-2,3-dihydrobenzofuran-4-yl)methyl)amino)-[1,2,4]triazolo[4,3-c]pyrimidin-8-yl)-5-methylimidazo[1,2-a]pyridine-3-carbonitrile]
0.0035 | 0.0022 | Cc1ccc(-c2cnc(NCc3c(F)ccc4c3CCO4)n3cnnc23)c2ncc(C(N)=O)n12 [8-(5-(((5-fluoro-2,3-dihydrobenzofuran-4-yl)methyl)amino)-[1,2,4]triazolo[4,3-c]pyrimidin-8-yl)-5-methylimidazo[1,2-a]pyridine-3-carboxamide]
0.0013 | 0.0013 | N#Cc1cnc2c(-c3cnc(NCc4c(F)ccc5c4CCO5)n4cnnc34)ccc(N3CCOCC3)n12 [8-(5-(((5-fluoro-2,3-dihydrobenzofuran-4-yl)methyl)amino)-[1,2,4]triazolo[4,3-c]pyrimidin-8-yl)-5-morpholinoimidazo[1,2-a]pyridine-3-carbonitrile]
